Assay results as given in patent publication US20220386606A1, “SPECIFICALLY SUBSTITUTED 3-PHENYL-5-SPIROCYCLOPENTYL-3-PYRROLIN-2-ONES AND THEIR USE AS HERBICIDES” (Bayer Aktiengesellschaft, priority 2019, published 2022).

Experiments:
ALOMY [1] = assay: Pre-emergence herbicidal action against ALOMY; format: in vivo, Alopecurus myosuroides; conditions: 320 g/ha, scored visually after 3 weeks vs untreated controls
Procedure, shortened: (§1)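 Pots of sandy loam with covered seeds receive a surface application of compound (WP or EC; aqueous, 600 to 800 L/ha, 0.2% wetting agent) before emergence. Under good greenhouse growth conditions, percent damage is judged by eye at 3 weeks against untreated controls.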

AVEFA [2] = assay: Pre-emergence herbicidal action against AVEFA; format: in vivo, Avena fatua; conditions: 320 g/ha, scored visually after 3 weeks vs untreated controls
Procedure, shortened: as §1

DIGSA [3] = assay: Pre-emergence herbicidal action against DIGSA; format: in vivo, Digitaria sanguinalis; conditions: 320 g/ha, scored visually after 3 weeks vs untreated controls
Procedure, shortened: as §1

ECHCG [4] = assay: Pre-emergence herbicidal action against ECHCG; format: in vivo, Echinochloa crus-galli; conditions: 320 g/ha, scored visually after 3 weeks vs untreated controls
Procedure, shortened: as §1

LOLRI [5] = assay: Pre-emergence herbicidal action against LOLRI (Table 8, titled post-emergence at 320 g/ha); format: in vivo, Lolium rigidum; conditions: table stands in the pre-emergence section
Procedure, shortened: as §1

SETVI [6] = assay: Pre-emergence herbicidal action against SETVI; format: in vivo, Setaria viridis; conditions: 320 g/ha, scored visually after 3 weeks vs untreated controls
Procedure, shortened: as §1

AMARE = assay: Pre-emergence herbicidal action against AMARE; format: in vivo, Amaranthus retroflexus; conditions: 320 g/ha
Procedure, shortened: as §1

MATIN = assay: Pre-emergence herbicidal action against MATIN; format: in vivo; conditions: 320 g/ha
Procedure, shortened: as §1

POLCO [7] = assay: Pre-emergence herbicidal action against POLCO; format: in vivo, Polygonum convolvulus; conditions: 320 g/ha
Procedure, shortened: as §1

VIOTR [8] = assay: Pre-emergence herbicidal action against VIOTR; format: in vivo, Viola tricolor; conditions: 320 g/ha
Procedure, shortened: as §1

VERPE [9] = assay: Pre-emergence herbicidal action against VERPE; format: in vivo, Veronica persica; conditions: 320 g/ha
Procedure, shortened: as §1

ALOMY [10] = assay: Post-emergence herbicidal action against ALOMY; format: in vivo, Alopecurus myosuroides; conditions: 80 g/ha, visual assessment after about 3 weeks
Procedure, shortened: (§2)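 Visual scoring about 3 weeks after treatment gave % herbicidal action relative to untreated plants (0% = control-like, 100% = plants dead). Compounds, as WP or EC with 0.2% wetting agent, were sprayed onto green parts at 600–800 l/ha. Plants had reached the one-leaf stage, 2–3 weeks after sowing in sandy loam under greenhouse conditions.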

AVEFA [11] = assay: Post-emergence herbicidal action against AVEFA; format: in vivo, Avena fatua; conditions: 80 g/ha, visual assessment after about 3 weeks
Procedure, shortened: as §2

DIGSA [12] = assay: Post-emergence herbicidal action against DIGSA; format: in vivo, Digitaria sanguinalis; conditions: 80 g/ha, visual assessment about 3 weeks after treatment vs untreated controls
Procedure, shortened: as §2

ECHCG [13] = assay: Post-emergence herbicidal action against ECHCG; format: in vivo, Echinochloa crus-galli; conditions: 80 g/ha, visual assessment about 3 weeks after treatment vs untreated controls
Procedure, shortened: as §2

LOLRI [14] = assay: Post-emergence herbicidal action against LOLRI; format: in vivo, Lolium rigidum; conditions: 80 g/ha, visual assessment about 3 weeks after treatment vs untreated controls
Procedure, shortened: as §2

SETVI [15] = assay: Post-emergence herbicidal action against SETVI; format: in vivo, Setaria viridis; conditions: 80 g/ha, visual assessment about 3 weeks after treatment vs untreated controls
Procedure, shortened: as §2

PHBPU = assay: Post-emergence herbicidal action against PHBPU; format: in vivo; conditions: assessed visually after about 3 weeks, 100% = plants have died, 0% = like control plants
Description: (§3) Seeds of monocotyledonous and dicotyledonous weed and crop plants are laid out in sandy loam soil in wood-fiber pots, covered with soil and cultivated in a greenhouse under good growth conditions. 2 to 3 weeks after sowing, the test plants are treated at the one-leaf stage. The compounds of the invention, formulated in the form of wettable powders (WP) or as emulsion concentrates (EC), are then sprayed onto the green parts of the plants as aqueous suspension or emulsion at a water application rate equating to 600 to 800 l/ha with addition of 0.2% wetting agent. After the test plants have been left to stand in the greenhouse under optimal growth conditions for about 3 weeks, the action of the preparations is assessed visually in comparison to untreated controls (herbicidal action in percent (%): 100% activity=the plants have died, 0% activity=like control plants).

ABUTH [16] = assay: Pre-emergence herbicidal action against ABUTH; format: in vivo, Abutylon threophrasti; conditions: 320 g/ha
Procedure, shortened: as §1

ABUTH [17] = assay: Post-emergence herbicidal action against ABUTH; format: in vivo, Abutylon threophrasti; conditions: 80 g/ha, visual assessment about 3 weeks after treatment vs untreated controls
Procedure, shortened: as §2

POLCO [18] = assay: Post-emergence herbicidal action against POLCO; format: in vivo, Polygonum convolvulus; conditions: 80 g/ha, visual assessment about 3 weeks after treatment vs untreated controls
Description: as §3

VIOTR [19] = assay: Post-emergence herbicidal action against VIOTR; format: in vivo, Viola tricolor; conditions: 80 g/ha, visual assessment about 3 weeks after treatment vs untreated controls
Procedure, shortened: as §2

VERPE [20] = assay: Post-emergence herbicidal action against VERPE; format: in vivo, Veronica persica; conditions: 80 g/ha, visual assessment about 3 weeks after treatment vs untreated controls
Description: as §3

HORMU = assay: Post-emergence herbicidal action against HORMU; format: in vivo, Hordeum murinum; conditions: 80 g/ha, visual assessment about 3 weeks after treatment vs untreated controls
Procedure, shortened: as §2

Row | SMILES | Pre-emergence action against ALOMY in % (ALOMY [1]) [%] | Pre-emergence action against AVEFA in % (AVEFA [2]) [%] | Pre-emergence action against DIGSA in % (DIGSA [3]) [%] | Pre-emergence action against ECHCG in % (ECHCG [4]) [%] | Pre-emergence herbicidal action against LOLRI in % (LOLRI [5]) [%] | Pre-emergence action against SETVI in % (SETVI [6]) [%] | Pre-emergence action against AMARE in % (AMARE) [%] | Pre-emergence action against MATIN in % (MATIN) [%] | Pre-emergence action against POLCO in % (POLCO [7]) [%] | Pre-emergence action against VIOTR in % (VIOTR [8]) [%] | Pre-emergence action against VERPE in % (VERPE [9]) [%] | Post-emergence action against ALOMY in % (ALOMY [10]) [%] | Post-emergence action against AVEFA in % (AVEFA [11]) [%] | Post-emergence action against DIGSA in % (DIGSA [12]) [%] | Post-emergence action against ECHCG in % (ECHCG [13]) [%] | Post-emergence action against LOLRI in % (LOLRI [14]) [%] | Post-emergence action against SETVI in % (SETVI [15]) [%] | Post-emergence action at 80 g/ha against PHBPU in % (PHBPU) [%] | Pre-emergence action against ABUTH in % (ABUTH [16]) [%] | Post-emergence action against POLCO in % (POLCO [18]) [%] | further results
1 | CC#Cc1cc(C)c(C2=C(OC(=O)OCC)C3(CCC(COCCC)C3)NC2=O)c(OC)c1 (stereo not shown) [Example P-81] | 100 | 100 | 100 | 100 | 100 | 100 | 100 | 80 | 100 | 100 | 90 | 100 | 80 | 90 | 100 | 100 | 100 | 80 |  |  | 
2 | CC#Cc1cc(Br)c(C2=C(O)C3(CCC(COCC)C3)NC2=O)c(OC)c1 (stereo not shown) [Example I-05] | 100 | 100 | 100 | 100 | 100 | 100 |  |  | 80 | 90 |  | 100 |  | 100 | 100 | 100 | 100 | 80 | 80 | 100 | Post-emergence action against ABUTH in % (ABUTH [17]): 80%
3 | CC#Cc1cc(C)c(C2=C(OC(=O)OCC)C3(CCC(COC)C3)NC2=O)c(F)c1 (stereo not shown) [Example P-51] | 100 | 80 | 100 | 100 | 100 | 100 | 90 |  | 90 | 100 |  | 100 | 100 | 100 | 100 | 100 |  |  | 80 | 80 | Post-emergence action against ABUTH in % (ABUTH [17]): 80%
4 | CC#Cc1cc(F)c(C2=C(O)C3(CCC(COC)C3)NC2=O)c(OC)c1 (stereo not shown) [Example I-41] |  | 80 | 100 |  | 100 | 100 |  |  |  |  |  | 100 | 90 | 100 | 100 | 90 | 100 | 80 |  |  | 
5 | CC#Cc1cc(C)c(C2=C(O)C3(CCC(COCCC)C3)NC2=O)c(OC)c1 (stereo not shown) [Example I-58] | 100 | 80 | 100 | 100 | 100 | 100 | 100 | 100 |  | 90 |  | 100 |  | 90 | 100 | 100 | 100 | 80 |  |  | Post-emergence action against VIOTR in % (VIOTR [19]): 80%
6 | CC#Cc1cc(Br)c(C2=C(O)[C@]3(CC[C@H](COCC)C3)NC2=O)c(OC)c1 (stereo in doubt) [Example I-11, 3-(2-Bromo-6-methoxy-4-prop-1-ynylphenyl)-8-(ethoxymethyl)-4-hydroxy-1-azaspiro[4.4]non-3-en-2-one] | 100 | 100 | 100 | 100 | 100 | 100 |  |  |  | 90 | 100 | 100 |  | 100 | 100 | 100 | 100 |  |  | 80 | Post-emergence action against VERPE in % (VERPE [20]): 80%
7 | CC#Cc1cc(C)c(C2=C(O)C3(CCC(COCCC)C3)NC2=O)c(Cl)c1 (stereo not shown) [Example I-68] | 100 | 100 | 100 | 100 | 100 | 100 | 100 | 100 |  | 100 |  | 100 |  | 100 | 100 | 100 | 100 | 80 | 90 |  | Post-emergence action against VIOTR in % (VIOTR [19]): 80%
8 | CC#Cc1cc(C)c(C2=C(OC(=O)C(C)C)C3(CCC(COC)C3)NC2=O)c(Cl)c1 (stereo not shown) [Example P-16] |  |  |  |  |  |  |  |  |  |  |  | 100 | 100 | 100 | 100 | 100 | 100 |  |  | 80 | Post-emergence action against ABUTH in % (ABUTH [17]): 80%; Post-emergence action against VIOTR in % (VIOTR [19]): 80%; Post-emergence action against HORMU in % (HORMU): 100%
9 | CC#Cc1cc(Br)c(C2=C(O)C3(CCC(COC)C3)NC2=O)c(OC)c1 (stereo not shown) [Example I-10] | 100 | 100 | 100 | 100 | 100 | 100 |  |  | 80 | 100 | 100 | 100 |  | 100 | 100 | 100 | 100 |  |  | 80 | 
